Consider three compounds from patent publication US10525055B2, “Opioid receptor antagonist prodrugs” (Nirsum Laboratories, Inc., priority 2017, dated 2020).

SMILES strings stand for the structures.

The conditions of data set [1]: cited from earlier work.
Another data set has as its target T1, MOR (Homo sapiens, UniProt P35372).
T1 construct: expressed in transfected cells; membranes prepared from them
Put plainly: Opioid receptor binding assay, MOR ([3H]DAMGO).

The nature of data set [2]: Solubility determination in oil (cottonseed oil, sesame oil). The conditions noted are these: Sesame oil; heating temp. 40 °C, obs. temp. 40 °C. The method, then: A known amount of test substance (˜40 mg) was weighed into the vial, 100 μL of oil was added and heated to 60° C. and then system was slurried to reach equilibrium. […] Extra oil was added into the vial once compound precipitated out and then the system was re-equilibrated at 1000 rpm at room temperature (25° C.). Final concentration was determined by HPLC method as described below in Table 6a and 6b.

The target in another data set is T2, KOR (Homo sapiens, UniProt P41145).
T2 construct: expressed in transfected cells; membranes prepared from them
T2 sequence (P41145 whole entry): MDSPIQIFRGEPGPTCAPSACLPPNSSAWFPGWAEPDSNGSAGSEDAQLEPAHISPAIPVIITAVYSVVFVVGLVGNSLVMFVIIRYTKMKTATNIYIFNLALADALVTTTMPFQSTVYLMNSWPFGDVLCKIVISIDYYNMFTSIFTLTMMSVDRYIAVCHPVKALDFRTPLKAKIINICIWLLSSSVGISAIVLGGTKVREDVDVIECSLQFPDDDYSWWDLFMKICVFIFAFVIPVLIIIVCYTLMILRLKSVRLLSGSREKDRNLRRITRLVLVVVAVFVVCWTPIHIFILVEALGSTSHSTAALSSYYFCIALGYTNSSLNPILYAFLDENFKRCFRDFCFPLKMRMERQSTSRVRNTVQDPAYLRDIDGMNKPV
Put plainly: Opioid receptor binding assay, KOR ([3H]Diprenorphine).

Data set [3] is described as follows: Equilibrium solubility in water. The conditions noted are these: heating temp. 40 °C, obs. temp. 40 °C.
Data set [4] can be described thus: Polymorph screening of solid state drug substances. The conditions noted are these: for XRPD results (Dried): stirred 50 °C 72 hours, solids dried; for Visual observation 50° C. / Visual observation RT: target conc. 100 mg/ml.
The nature of data set [5]: Plasma stability assay, rat plasma. The class given is in vitro ADME. As to conditions: 37° C., 10 μM.

T1 sequence (P35372 whole entry): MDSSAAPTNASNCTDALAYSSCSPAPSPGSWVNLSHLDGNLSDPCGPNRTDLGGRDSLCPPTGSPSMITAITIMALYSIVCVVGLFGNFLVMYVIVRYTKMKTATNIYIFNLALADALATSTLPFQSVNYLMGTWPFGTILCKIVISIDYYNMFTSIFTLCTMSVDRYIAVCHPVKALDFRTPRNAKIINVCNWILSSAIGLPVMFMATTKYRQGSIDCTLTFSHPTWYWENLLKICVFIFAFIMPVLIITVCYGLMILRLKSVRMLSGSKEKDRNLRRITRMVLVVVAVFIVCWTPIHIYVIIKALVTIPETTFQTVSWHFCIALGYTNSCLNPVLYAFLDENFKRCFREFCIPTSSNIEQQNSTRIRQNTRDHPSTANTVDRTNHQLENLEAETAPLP

`Oc1ccc2c3c1O[C@H]1[C@H](O)CC[C@@]4(O)[C@@H](C2)N(CC2CC2)CC[C@]314` [6-β-naltrexol]: in data set [1], the “time of peak plasma levels after oral dosing” value is given as “one”. Moreover, the mean elimination half-life result in data set [1] (oral) is “thirteen”.
For orientation: IC50 means the point on the concentration scale where inhibition reaches its midpoint. High values mean weaker potency, low ones greater potency. For `C=C1CC[C@@]2(O)C3Cc4ccc(OC(=O)CCCCCCCCCCCCCCCCCCCCC)c5c4[C@@]2(CCN3CC2CC2)[C@H]1O5` [Compound 14, (4aS,7aS,12bS)-3-(cyclopropylmethyl)-4a-hydroxy-7-methylene-2,3,4,4a,5,6,7,7a-octahydro-1H-4,12-methanobenzofuro[3,2-e]isoquinolin-9-yl docosanoate], the IC50 amounted to 12.5 nM on MOR and 1770 nM at KOR. Moreover, the “%Inh@MaxDose” value stood at 92.7% on MOR (MOR, MaxDose 10000 nM) and 68.1% on KOR (KOR, MaxDose 10000 nM). Moreover, the “Approximate Solubility (mg/mL) in Excipient: Sesame oil” value in data set [2] is <51 mg/mL. For the same compound, in data set [3], the “Equilibrium solubility (mg/mL) Water” value is on record as 0.0056 mg/mL. The “XRPD results (Dried)” value in data set [4] (Acetone) is listed as “Pattern A”; in data set [4] (EtOAc) it was “Pattern A”; in data set [4] (Heptane) it was “Pattern B”; in data set [4] (Isopropanol), “Pattern A”; in data set [4] (MTBE), “Pattern A”. In addition, the “Visual observation 50° C.” value in data set [4] (Acetone) is given as “Clear”; in data set [4] (EtOAc), “Clear”; in data set [4] (Heptane) it was “Slurry”; in data set [4] (Isopropanol) it was “Clear”; in data set [4] (MTBE), “Clear”. Moreover, the “Visual observation RT” value is on record as “Slimy” in data set [4] (Acetone); “Slurry” in data set [4] (EtOAc); “Slurry” in data set [4] (Heptane); “Clear” in data set [4] (Isopropanol); “Clear” in data set [4] (MTBE). The “% remaining at time point in minutes, 0 min” value in data set [5] (0 min) was found to be 100%. In addition, the “% remaining at time point in minutes, 15 min” value in data set [5] (15 min) was found to be 94%. Moreover, the “% remaining at time point in minutes, 120 min” value in data set [5] (120 min) is 112%. The “% remaining at time point in minutes, 480 min” value in data set [5] (480 min) worked out at 107%. Moreover, the “% remaining at time point in minutes, 1440 min” value in data set [5] (1440 min) is 120%.
For the compound `O=C1CC[C@@]2(O)[C@H]3Cc4ccc(O)c5c4[C@@]2(CCN3CC2CC2)[C@H]1O5` [naltrexone, 17-(cyclopropylmethyl)-4,5α-epoxy-3,14-dihydroxymorphinan-6-one, reference compound], the “time of peak plasma levels after oral dosing” value in data set [1] is given as “one”.
